Earlier results in US20240315993A1, “ANTIPARASITIC COMPOUNDS” (Intervet Inc., priority 2021, published 2024).

Assays:
[1] = test system: Yellow Fever Mosquito (Aedes aegypti); conditions: Aedes aegypti larvae about 1 day old, 96-well plate, scored after 3 days; cited from earlier work
[2] = test system: Beet Armyworm (Spodoptera exigua); conditions: Beet Armyworm second instar larvae, 128-well diet tray, 50 μg/cm^2, five to seven days, average of eight wells; cited from earlier work
[3] = test system: Cabbage Looper (Trichoplusia ni); conditions: Cabbage Looper second instar larvae, 128-well diet tray, 50 μg/cm^2, five to seven days, average of eight wells; cited from earlier work

Compound	Test C: Bioassay on Yellow Fever Mosquito, mortality rating [1]	Test A: Bioassay on BAW, percent mortality rating [2]	Test B: Bioassay on CL, percent mortality rating [3]
Cc1nc2cc(NC(=O)c3cc(NC(=O)C4C(c5cc(Cl)cc(Cl)c5)C4(Cl)Cl)ccc3Cl)ccc2s1 (stereo not drawn) [c33]	A (80-100)	A (50-100)	A (50-100)
O=C(Nc1ccc2[nH]cnc2c1)c1cc(NC(=O)C2C(c3cc(Cl)cc(Cl)c3)C2(Cl)Cl)ccc1Cl (stereo not drawn) [c34]	B (More than 0 - Less than 80)	A (50-100)	A (50-100)
CNc1ccc(NC(=O)c2cc(NC(=O)C3C(c4cc(Cl)cc(Cl)c4)C3(Cl)Cl)ccc2Cl)c(C)c1 (stereo not drawn) [c35]	A (80-100)	A (50-100)	A (50-100)
Cn1ccc2cc(NC(=O)c3cc(NC(=O)C4C(c5cc(Cl)cc(Cl)c5)C4(Cl)Cl)ccc3Cl)ccc21 (stereo not drawn) [c36]	A (80-100)	A (50-100)	A (50-100)
O=C(Nc1ccc2c(ccn2Cc2ccccc2)c1)c1cc(NC(=O)C2C(c3cc(Cl)cc(Cl)c3)C2(Cl)Cl)ccc1Cl (stereo not drawn) [c37]	D (No activity noticed in this bioassay)	A (50-100)	A (50-100)
CN1C(=O)Cc2cc(NC(=O)c3cc(NC(=O)C4C(c5cc(Cl)cc(Cl)c5)C4(Cl)Cl)ccc3Cl)ccc21 (stereo not drawn) [c38]	A (80-100)	A (50-100)	A (50-100)
Cn1nc(NC(=O)c2cc(NC(=O)C3C(c4cc(Cl)cc(Cl)c4)C3(Cl)Cl)ccc2Cl)c2cc(C(F)(F)F)ccc21 (stereo not drawn) [c39]	A (80-100)	A (50-100)	A (50-100)
O=C(Nc1ccc(-c2nccs2)cc1)c1cc(NC(=O)C2C(c3cc(Cl)cc(Cl)c3)C2(Cl)Cl)ccc1Cl (stereo not drawn) [c41]	A (80-100)	A (50-100)	A (50-100)
Cc1cc(N(C)C(=O)OC(C)(C)C)ccc1NC(=O)c1cc(NC(=O)C2C(c3ccc(F)c(Cl)c3)C2(Cl)Cl)ccc1Cl (stereo not drawn) [c42]	D (No activity noticed in this bioassay)	A (50-100)	D (No activity noticed in this bioassay)
Cc1cc(N(C)C(=O)OC(C)(C)C)ccc1N(C)C(=O)c1cc(NC(=O)C2C(c3cc(Cl)cc(Cl)c3)C2(Cl)Cl)ccc1Cl (stereo not drawn) [c43]	D (No activity noticed in this bioassay)	A (50-100)	A (50-100)
Cc1cc(N(C)C(=O)OC(C)(C)C)ccc1N(C)C(=O)c1cc(NC(=O)C2C(c3cc(Cl)c(Cl)c(Cl)c3)C2(Cl)Cl)ccc1Cl (stereo not drawn) [c44]	D (No activity noticed in this bioassay)	A (50-100)	D (No activity noticed in this bioassay)
O=C(Nc1nc(-c2cccs2)cs1)c1cc(NC(=O)[C@H]2[C@H](c3cc(Cl)cc(Cl)c3)C2(Cl)Cl)ccc1Cl [c45]	A (80-100)	A (50-100)	A (50-100)
O=C(Nc1ccc2[nH]c(C(F)(F)F)cc2c1)c1cc(NC(=O)C2C(c3cc(Cl)cc(Cl)c3)C2(Cl)Cl)ccc1Cl (stereo not drawn) [c46]	D (No activity noticed in this bioassay)	A (50-100)	A (50-100)
CNc1ccc(NC(=O)c2cc(NC(=O)C3C(c4cc(Cl)c(Cl)c(Cl)c4)C3(Cl)Cl)ccc2Cl)c(C)c1 (stereo not drawn) [c47]	A (80-100)	A (50-100)	A (50-100)
CNc1ccc(N(C)C(=O)c2cc(NC(=O)C3C(c4cc(Cl)cc(Cl)c4)C3(Cl)Cl)ccc2Cl)c(C)c1 (stereo not drawn) [c48]	D (No activity noticed in this bioassay)	A (50-100)	A (50-100)
CNc1ccc(N(C)C(=O)c2cc(NC(=O)C3C(c4cc(Cl)c(Cl)c(Cl)c4)C3(Cl)Cl)ccc2Cl)c(C)c1 (stereo not drawn) [c49]	A (80-100)	A (50-100)	A (50-100)
N#Cc1cc([N+](=O)[O-])ccc1NC(=O)c1cc(NC(=O)C2C(c3cc(Cl)cc(Cl)c3)C2(Cl)Cl)ccc1Cl (stereo not drawn) [c51]	A (80-100)	A (50-100)	A (50-100)

Compound	Test C: Bioassay on Yellow Fever Mosquito, mortality rating [1]	Test A: Bioassay on BAW, percent mortality rating [2]	Test B: Bioassay on CL, percent mortality rating [3]
Cc1ccc(NC(=O)c2cc(NC(=O)C3C(c4cc(Cl)cc(Cl)c4)C3(Cl)Cl)ccc2Cl)c([N+](=O)[O-])c1 (stereo not drawn) [c52]	A (80-100)	A (50-100)	A (50-100)
N#Cc1cc(C(F)(F)F)ccc1NC(=O)c1cc(NC(=O)C2C(c3cc(Cl)cc(Cl)c3)C2(Cl)Cl)ccc1Cl (stereo not drawn) [c53]	A (80-100)	A (50-100)	A (50-100)
N#Cc1ccc(NC(=O)c2cc(NC(=O)C3C(c4cc(Cl)cc(Cl)c4)C3(Cl)Cl)ccc2Cl)cc1C(F)(F)F (stereo not drawn) [c54]	A (80-100)	A (50-100)	A (50-100)
O=C(Nc1ccc2c(c1)C(=O)NC2=O)c1cc(NC(=O)C2C(c3cc(Cl)cc(Cl)c3)C2(Cl)Cl)ccc1Cl (stereo not drawn) [c55]	D (No activity noticed in this bioassay)	A (50-100)	A (50-100)
N#Cc1cc(N)ccc1NC(=O)c1cc(NC(=O)C2C(c3cc(Cl)cc(Cl)c3)C2(Cl)Cl)ccc1Cl (stereo not drawn) [c56]	A (80-100)	A (50-100)	A (50-100)
CC(=O)N(C(C)=O)c1ccc(NC(=O)c2cc(NC(=O)C3C(c4cc(Cl)cc(Cl)c4)C3(Cl)Cl)ccc2Cl)c(C#N)c1 (stereo not drawn) [c57]	A (80-100)	A (50-100)	A (50-100)
CNc1ccc(NC(=O)c2cc(NC(=O)C3C(c4cc(Cl)cc(Cl)c4)C3(Cl)Cl)ccc2Cl)c(C#N)c1 (stereo not drawn) [c58]	A (80-100)	A (50-100)	A (50-100)
Cc1cc(N)ccc1NC(=O)c1cc(NC(=O)C2C(c3cc(Cl)cc(Cl)c3)C2(Cl)Cl)ccc1Cl (stereo not drawn) [c59]	A (80-100)	A (50-100)	A (50-100)
O=C1Cc2cc(NC(=O)c3cc(NC(=O)C4C(c5cc(Cl)cc(Cl)c5)C4(Cl)Cl)ccc3Cl)ccc2N1 (stereo not drawn) [c60]	A (80-100)	A (50-100)	A (50-100)
O=C(Nc1cc2cc[nH]c2cn1)c1cc(NC(=O)C2C(c3cc(Cl)cc(Cl)c3)C2(Cl)Cl)ccc1Cl (stereo not drawn) [c61]	A (80-100)	A (50-100)	A (50-100)
O=C(Nc1ccc2nccn2c1)c1cc(NC(=O)C2C(c3cc(Cl)cc(Cl)c3)C2(Cl)Cl)ccc1Cl (stereo not drawn) [c62]	A (80-100)	A (50-100)	A (50-100)
Cn1ncc2cc(NC(=O)c3cc(NC(=O)C4C(c5cc(Cl)cc(Cl)c5)C4(Cl)Cl)ccc3Cl)cnc21 (stereo not drawn) [c63]	A (80-100)	A (50-100)	A (50-100)
Cc1ccc2c(NC(=O)c3cc(NC(=O)C4C(c5cc(Cl)cc(Cl)c5)C4(Cl)Cl)ccc3Cl)n[nH]c2c1 (stereo not drawn) [c64]	A (80-100)	A (50-100)	A (50-100)
Cc1cc(N2C(=O)C=CC2=O)ccc1NC(=O)c1cc(NC(=O)C2C(c3cc(Cl)cc(Cl)c3)C2(Cl)Cl)ccc1Cl (stereo not drawn) [c65]	A (80-100)	A (50-100)	A (50-100)
O=C(Nc1cnc2[nH]ccc2c1)c1cc(NC(=O)C2C(c3cc(Cl)cc(Cl)c3)C2(Cl)Cl)ccc1Cl (stereo not drawn) [c66]	A (80-100)	A (50-100)	A (50-100)
CCOC(=O)c1cc2cc(NC(=O)c3cc(NC(=O)C4C(c5cc(Cl)cc(Cl)c5)C4(Cl)Cl)ccc3Cl)ccc2[nH]1 (stereo not drawn) [c67]	A (80-100)	A (50-100)	A (50-100)
CC(C)(C)OC(=O)n1ccc2cc(NC(=O)c3cc(NC(=O)C4C(c5cc(Cl)cc(Cl)c5)C4(Cl)Cl)ccc3Cl)ccc21 (stereo not drawn) [c68]	D (No activity noticed in this bioassay)	A (50-100)	A (50-100)
